Experimental data from ChEMBL document CHEMBL1201862, “PubChem BioAssay data set” (2004).
Each block holds one molecule with its values, some of them ahead of it. Active and inactive are the calls of the source.

Key:
[1] = target: T1, Sentrin-specific protease 8 (Homo sapiens, UniProt Q96LD8); assay type: functional
T1 sequence (Q96LD8 whole entry): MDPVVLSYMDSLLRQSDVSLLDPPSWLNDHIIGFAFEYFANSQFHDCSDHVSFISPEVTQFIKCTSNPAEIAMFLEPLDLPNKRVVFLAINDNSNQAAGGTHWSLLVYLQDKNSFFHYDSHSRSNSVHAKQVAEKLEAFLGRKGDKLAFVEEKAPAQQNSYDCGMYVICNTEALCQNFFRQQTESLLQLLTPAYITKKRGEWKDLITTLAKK

[2] = target: T1, Sentrin-specific protease 8; assay type: functional; remark: listed apart in the source
[3] = target: T2, Apoptotic protease-activating factor 1 (Homo sapiens, UniProt O14727); assay: SAR analysis of small molecule Activators of Apaf-1 in a Fluorescent assay.; assay type: functional; settings: read-out: EC50_Mean;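 note: caspase-3 cleavage of fluorogenic Rh110 DEVD substrate downstream of apoptosome activation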
T2 sequence (O14727 whole entry): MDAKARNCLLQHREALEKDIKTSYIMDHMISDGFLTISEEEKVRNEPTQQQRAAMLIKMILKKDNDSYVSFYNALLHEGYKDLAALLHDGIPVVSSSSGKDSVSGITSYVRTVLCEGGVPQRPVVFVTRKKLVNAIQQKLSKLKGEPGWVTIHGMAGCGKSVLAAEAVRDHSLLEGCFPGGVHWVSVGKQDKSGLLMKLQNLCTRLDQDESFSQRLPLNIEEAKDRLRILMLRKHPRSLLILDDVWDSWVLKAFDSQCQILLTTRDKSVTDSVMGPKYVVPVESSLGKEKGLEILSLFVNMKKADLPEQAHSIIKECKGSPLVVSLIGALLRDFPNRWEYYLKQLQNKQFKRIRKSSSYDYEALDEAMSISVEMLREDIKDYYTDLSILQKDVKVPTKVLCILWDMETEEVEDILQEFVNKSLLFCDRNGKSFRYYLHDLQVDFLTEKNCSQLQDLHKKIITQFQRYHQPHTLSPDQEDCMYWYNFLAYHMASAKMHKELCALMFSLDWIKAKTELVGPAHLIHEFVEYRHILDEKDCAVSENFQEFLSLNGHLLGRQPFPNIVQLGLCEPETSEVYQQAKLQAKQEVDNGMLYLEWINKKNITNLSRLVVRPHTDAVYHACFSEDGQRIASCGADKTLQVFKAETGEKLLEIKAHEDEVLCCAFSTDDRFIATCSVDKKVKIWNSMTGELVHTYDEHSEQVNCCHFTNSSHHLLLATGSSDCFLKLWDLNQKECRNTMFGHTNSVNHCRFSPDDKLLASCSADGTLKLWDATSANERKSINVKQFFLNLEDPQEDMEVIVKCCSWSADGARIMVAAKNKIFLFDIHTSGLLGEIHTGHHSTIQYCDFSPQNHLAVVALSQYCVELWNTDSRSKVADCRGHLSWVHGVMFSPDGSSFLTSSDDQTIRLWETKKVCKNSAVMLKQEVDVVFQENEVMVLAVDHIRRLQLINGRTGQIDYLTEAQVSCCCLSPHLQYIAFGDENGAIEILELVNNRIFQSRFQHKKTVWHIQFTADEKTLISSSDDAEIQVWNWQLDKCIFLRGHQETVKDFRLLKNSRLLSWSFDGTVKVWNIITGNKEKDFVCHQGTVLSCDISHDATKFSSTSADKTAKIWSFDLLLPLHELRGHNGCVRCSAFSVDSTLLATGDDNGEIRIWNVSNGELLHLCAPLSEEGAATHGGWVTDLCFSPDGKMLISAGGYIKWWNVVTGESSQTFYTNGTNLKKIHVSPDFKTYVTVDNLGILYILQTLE

[4] = target: T3, Corticotropin-releasing factor receptor 2/Corticotropin-releasing factor-binding protein (Homo sapiens, UniProt P24387+Q13324); assay: activators of CRF receptor 2 with binding protein – uHTS hits, confirmation (AID 602473); assay type: functional; settings: read-out: EC50_Mean
T3 sequence (Q13324 whole entry): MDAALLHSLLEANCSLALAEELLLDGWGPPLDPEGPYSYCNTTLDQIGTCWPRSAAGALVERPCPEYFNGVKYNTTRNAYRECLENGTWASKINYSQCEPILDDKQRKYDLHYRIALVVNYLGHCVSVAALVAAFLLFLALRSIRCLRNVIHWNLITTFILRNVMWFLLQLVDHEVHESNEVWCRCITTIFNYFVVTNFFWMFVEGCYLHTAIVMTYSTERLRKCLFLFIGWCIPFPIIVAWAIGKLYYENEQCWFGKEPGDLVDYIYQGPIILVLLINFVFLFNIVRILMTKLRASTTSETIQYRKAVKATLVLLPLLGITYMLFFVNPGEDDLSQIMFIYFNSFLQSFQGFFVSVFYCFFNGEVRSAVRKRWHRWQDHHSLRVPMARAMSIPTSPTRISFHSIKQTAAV
T3 sequence (P24387 whole entry): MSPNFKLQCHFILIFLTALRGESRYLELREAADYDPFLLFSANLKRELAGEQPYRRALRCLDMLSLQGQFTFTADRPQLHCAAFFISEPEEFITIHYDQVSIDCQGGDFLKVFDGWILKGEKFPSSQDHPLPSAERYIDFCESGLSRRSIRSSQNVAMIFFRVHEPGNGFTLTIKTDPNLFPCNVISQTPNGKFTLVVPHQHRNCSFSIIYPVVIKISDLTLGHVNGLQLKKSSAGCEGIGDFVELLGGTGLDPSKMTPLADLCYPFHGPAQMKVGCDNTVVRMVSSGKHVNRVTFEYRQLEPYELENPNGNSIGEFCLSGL

[5] = target: ATP-dependent molecular chaperone HSP82 (Candida albicans (strain WO-1) (Yeast), UniProt C4YTQ8); assay: steroid-induced GRE reporter decrease in yeast – S. cerevisiae, luminescence, Hsp90 inhibitor project, dose response (AID 2400); assay type: functional, cell-based;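 note: beta-galactosidase luminescence from glucocorticoid response element reporter as proxy for Hsp90 function; inhibitor potency where signal loss means Hsp90 inhibition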
[6] = NIH-3T3 fibroblast cytotoxicity, dose response, cytotoxicity control, cell-based, fluorescence, Alamar Blue, secondary assay (AID 2327); assay type: functional;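 note: NIH-3T3 mouse fibroblasts cultured with fluconazole at 8 µg/mL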
[7] = target: T4, Serine/threonine-protein phosphatase (Candida dubliniensis (strain CD36 / CBS 7987 / NCPF 3949 / NRRLY-17841) (Yeast), UniProt B9W6M3); assay: blockers of CaCl2-induced CDRE-lacZ signaling – S. cerevisiae, luminescence, secondary, dose response (AID 2388); assay type: functional, cell-based;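 note: yeast reporter cells carrying a calcineurin-responsive lacZ construct stimulated with calcium chloride; luminescent beta-galactosidase reporter signal in whole cells rather than isolated phosphatase activity; potency for inhibition where a drop in reporter signal means calcineurin blockade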
T4 sequence (B9W6M3 whole entry): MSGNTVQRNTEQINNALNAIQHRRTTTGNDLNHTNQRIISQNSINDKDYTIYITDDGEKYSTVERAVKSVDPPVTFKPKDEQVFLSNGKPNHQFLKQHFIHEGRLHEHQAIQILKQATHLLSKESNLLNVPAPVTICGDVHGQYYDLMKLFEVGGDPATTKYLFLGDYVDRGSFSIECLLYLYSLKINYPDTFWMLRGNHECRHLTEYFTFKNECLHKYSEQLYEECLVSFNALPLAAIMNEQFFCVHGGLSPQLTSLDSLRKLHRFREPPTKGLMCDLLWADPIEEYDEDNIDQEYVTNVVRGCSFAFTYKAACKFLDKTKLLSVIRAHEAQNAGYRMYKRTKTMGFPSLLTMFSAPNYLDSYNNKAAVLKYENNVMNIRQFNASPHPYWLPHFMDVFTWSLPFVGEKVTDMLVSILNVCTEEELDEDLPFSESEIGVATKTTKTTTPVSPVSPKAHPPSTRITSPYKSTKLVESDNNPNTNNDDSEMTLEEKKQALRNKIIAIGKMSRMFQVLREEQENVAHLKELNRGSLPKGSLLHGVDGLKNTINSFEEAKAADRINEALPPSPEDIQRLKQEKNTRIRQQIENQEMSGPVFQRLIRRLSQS

[8] = fluconazole-exposed Candida albicans growth modulators – fluorescence, retest, confirmation (AID 2467); assay type: functional, cell-based
[9] = general cell-killing toxicity readout – plate reader, dry powder samples, cytotoxicity control for PAX8 inhibitor project, dose response (AID 743021); assay type: functional, cell-based
[10] = blockers of HIV-1 ZM109 envelope-driven cell-cell fusion – HeLa effector, CEM target cells, luciferase, cherry-pick, dose response (AID 652058); assay type: functional, cell-based;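 note: luciferase signal from HIV-1 Env mediated cell-cell fusion of effector and target cells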
[11] = off-target signal loss in HeLa-CEM21 co-culture – HeLa F-luc CTL cells, cherry-picked, counter-screen for HIV-1 Env fusion inhibitor project, dose response (AID 652040); assay type: functional, cell-based;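 note: potency for signal decrease marking cytotoxic or nonspecific inhibition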
[12] = blockers of HIV-1 envelope-mediated cell-cell fusion – cherry-pick, dose response (AID 652057); assay type: functional, cell-based
[13] = viability loss in CEM21 cells – cell-based, CellTiter-Glo luminescence, cherry-picked, cytotoxicity control for viral fusion inhibitor project, dose response (AID 652042); assay type: functional;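 note: potency for signal decrease meaning cytotoxicity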
[14] = HIV-1 AD8 envelope cell-cell fusion blockers – cherry-pick, dose response (AID 652062); assay type: functional, cell-based;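 note: luciferase signal from cell-cell fusion driven by HIV-1 clade B AD8 Env; potency is for inhibitors of fusion seen as a drop in luminescence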

Chain of ATP-dependent molecular chaperone HSP82 (C4YTQ8 whole entry): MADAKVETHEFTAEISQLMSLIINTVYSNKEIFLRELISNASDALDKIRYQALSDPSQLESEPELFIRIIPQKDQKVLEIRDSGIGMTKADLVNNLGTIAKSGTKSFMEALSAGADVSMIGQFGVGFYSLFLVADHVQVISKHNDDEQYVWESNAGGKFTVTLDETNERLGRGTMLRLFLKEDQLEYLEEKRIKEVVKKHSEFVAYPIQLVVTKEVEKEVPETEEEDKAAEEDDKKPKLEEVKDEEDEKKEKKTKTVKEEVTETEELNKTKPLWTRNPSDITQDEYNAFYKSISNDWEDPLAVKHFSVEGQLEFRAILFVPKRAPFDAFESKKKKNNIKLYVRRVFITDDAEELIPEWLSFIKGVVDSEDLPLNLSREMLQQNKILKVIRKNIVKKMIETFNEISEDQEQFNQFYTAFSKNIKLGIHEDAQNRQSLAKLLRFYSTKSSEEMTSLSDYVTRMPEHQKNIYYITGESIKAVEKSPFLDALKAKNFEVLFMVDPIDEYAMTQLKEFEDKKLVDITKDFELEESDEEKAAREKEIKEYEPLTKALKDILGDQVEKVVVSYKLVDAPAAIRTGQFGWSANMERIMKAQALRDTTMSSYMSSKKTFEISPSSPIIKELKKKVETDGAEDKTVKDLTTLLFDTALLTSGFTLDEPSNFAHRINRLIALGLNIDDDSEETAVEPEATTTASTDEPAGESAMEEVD

SMILES: CC(=O)Nc1ccc(NC(=O)COC(=O)c2ccc([N+](=O)[O-])o2)cc1
IC50 [1]: 7.03 µM (active)
IC50 [2]: 11.8 µM (active)

EC50 [3]: > 100 µM (inactive)
SMILES: COC(=O)c1coc(-c2cnc(OC)nc2)n1

SMILES: CCOC(=O)Cc1csc(NC(=O)CSc2nnc(-c3ccncc3)o2)n1
EC50 [4]: > 53 µM (inactive)
EC50 [5]: > 150 µM (inactive)
EC50 [6]: > 150 µM (inactive)
EC50 [7]: > 180 µM (inactive)
EC50 [8]: 517 nM (active)

EC50 [3]: > 100 µM (inactive)
SMILES: CCOC(=O)C1(C)Oc2ccccc2NC1=O (stereo not given)

SMILES: C[C@@H]1CCCCO[C@H](CN(C)C)[C@H](C)CN([C@@H](C)CO)C(=O)c2cc(NS(=O)(=O)c3ccc(Cl)cc3)ccc2O1
AC50 [9]: 1.71 µM (active)

SMILES: O=C(c1cccc(C(F)(F)F)c1)N1CCc2c([nH]c3ccccc23)C1C(F)(F)F (stereo not given)
AC50 [10]: 660 nM (active)
AC50 [11]: 1.88 µM (active)
AC50 [12]: 5.55 µM (active)
AC50 [13]: 50.8 µM (active)
AC50 [14]: 1.19 µM (active)
